In the oligonucleotide strings, read from the 5' end, every base follows the letter of its sugar. An asterisk marks phosphorothioate; unmarked linkages are phosphodiester. Other units and linkages are bracketed, terminal groups are in braces. A string of capitals states the bases alone. e = 2'-O-(2-methoxyethyl) (MOE); [5mC] = 5-methylcytosine; d = 2'-deoxy (DNA)
Columns and labels:
[1] = tested on: Glut4; assay: Glut4 mRNA expression in adipocytes (real-time PCR); assay type: cell-based, human; settings: differentiating adipocytes transfected with oligomeric compound
[2] = tested on: HuVECs; assay: Endothelial tube formation assay in HuVECs; settings: for % Activity Relative to UTC (tube formation): 75 nM oligomeric compound
Description: In some embodiments, HUVECs are used to measure the effects of oligomeric compounds of the invention on endothelial tube formation activity. The tube formation assay is performed using an in vitro Angiogenesis Assay Kit (Chemicon International, Temecula, Calif.).
Untreated control cells receive LIPOFECTIN™ only.
Approximately fifty hours after transfection, cells are transferred to 96-well plates coated with ECMatrix™ (Chemicon International). Under these conditions, untreated HUVECs form tube-like structures. After an overnight incubation at 37° C., treated and untreated cells are inspected by light microscopy. Tube formation in cells treated with oligomeric compounds is compared to that in untreated control cells. Individual wells are assigned discrete scores from 1 to 5 depending on the extent of tube formation. A score of 1 refers to a well with no tube formation while a score of 5 is given to wells where all cells are forming an extensive tubular network.
In one embodiment, primary human umbilical vein endothelial cells (HuVECs) were used to measure the effects of oligomeric compounds targeted to miRNAs on tube formation activity. HuVECs were routinely cultured in EBM (Clonetics Corporation, Walkersville, Md.) supplemented with SingleQuots supplements (Clonetics Corporation, Walkersville, Md.). […] HuVECs are plated at 3000 cells/well in 96-well plates. One day later, cells are transfected with oligomeric compounds. The tube formation assay is performed using an in vitro Angiogenesis Assay Kit (Chemicon International, Temecula, Calif.).
ISIS 29248 and ISIS 196103 are chimeric 5-10-52′-MOE gapmer oligonucleotides. […] All cytidine residues are 5-methylcytidines. ISIS 342672 (SEQ ID NO: 789) contains 13 mismatches with respect to the mature mir-143 miRNA, and was also used as a negative control. ISIS 342672 is a uniform 2′-MOE phosphorothioate oligomeric compound 22 nucleotides in length. All cytidine residues are 5-methylcytidines.
Oligomeric compound was mixed with LIPOFECTIN™ (Invitrogen Life Technologies, Carlsbad, Calif.) in OPTI-MEM™ (Invitrogen Life Technologies, Carlsbad, Calif.) to achieve a final concentration of 75 nM of oligomeric compound and 2.25 μg/mL LIPOFECTIN™. Before adding to cells, the oligomeric compound, LIPOFECTIN™ and OPTI-MEM™ were mixed thoroughly and incubated for 0.5 hrs. Untreated control cells received LIPOFECTIN™ only. […] Compounds targeted to miRNAs were tested in triplicate, and ISIS 29848 was tested in up to six replicates. […] 100 μL of full growth medium was added to each well. Fifty hours after transfection, cells are transferred to 96-well plates coated with ECMa-trix™ (Chemicon Inter-national). Under these conditions, untreated HuVECs form tube-like structures.

[3] = tested on: PPARγ; assay: PPARγ mRNA expression in adipocytes (real-time PCR); assay type: cell-based, human; settings: differentiating adipocytes transfected with oligomeric compound
[4] = tested on: adipocytes; assay: Triglyceride accumulation assay in adipocytes; assay type: cell-based, human; settings: differentiating adipocytes transfected with oligomeric compound
[5] = tested on: aP2; assay: aP2 mRNA expression in adipocytes (real-time PCR); assay type: cell-based, human; settings: differentiating adipocytes transfected with oligomeric compound
[6] = tested on: HSL; assay: HSL mRNA expression in adipocytes (real-time PCR); assay type: cell-based, human; settings: differentiating adipocytes transfected with oligomeric compound
[7] = tested on: PEPCK-c; assay: PEPCK-c mRNA expression in HepG2 cells; assay type: cell-based, human; settings: Experiment 2, insulin treated: HepG2 cells transfected with oligomeric compound, 1 nM insulin for four hours; UTC + 1 nM insulin = 100
Description: (§1) Approximately 28 hours after transfection, the cells are subjected to serum starvation for a period of 12 to 16 hours, using serum-free growth medium. Following serum starvation, cells are treated with 1 nM insulin (insulin-treated) or are left untreated (basal conditions) for approximately four hours. At the same time, untreated control cells in both plates are treated with 100 nM insulin to determine the maximal insulin response. Following insulin treatment (forty-eight hours after transfection), total RNA is harvested from all samples, and the amount of total RNA from each sample is determined using a Ribogreen assay (Invitrogen Corporation, Carlsbad, Calif.). Real-time PCR is performed on the total RNA samples using primer/probe sets for three insulin responsive genes: insulin-like growth factor binding protein-1 (IGFBP-1), cytosolic PEPCK (PEPCK-C), and follistatin. Gene expression levels obtained by real-time PCR are normalized for total RNA content in the samples.
(§2) Oligomeric compounds of the present invention were tested for their effects on insulin signaling in HepG2 cells. HepG2 cells were plated at 7500 cells/well in collagen coated 96-well plates. The following day, cells were transfected with oligomeric compounds targeting miRNAs using 100 nM oligomeric compound in LIPOFECTIN™ (Invitrogen Corporation, Carlsbad, Calif.) in two 96-well plates. The oligomeric compounds were tested in triplicate on each 96-well plate, except for positive and negative controls, which were measured up to six times per plate. At the end of transfection, the transfection medium was replaced by regular growth medium. Twenty-eight hours post-transfection, the cells were subjected to overnight (sixteen to eighteen hours) serum starvation using serum free growth medium. Forty-four hours post-transfection, the cells in the transfected wells were treated with either no insulin (“basal” Experiment 1, for identification of insulin-mimetic compounds) or with 1 nM insulin (“insulin treated” Experiment 2, for identification of insulin sensitizers) for four hours. At the same time, in both plates, cells in some of the un-transfected control wells are treated with 100 nM insulin to determine maximal insulin response. At the end of the insulin or no-insulin treatment (forty-eight hours post-transfection), total RNA is isolated from both the basal and insulin treated (1 nM) 96-well plates, and the amount of total RNA from each sample is determined using a Ribogreen assay (Molecular Probes, Eugene, Oreg.). Real-time PCR is performed on all the total RNA samples using primer/probe sets for three insulin responsive genes: PEPCK-c, IGFBP-1 and follistatin. Expression levels for each gene are normalized to total RNA, and values+standard deviation are expressed relative to the transfectant only untreated control (UTC) and negative control compounds.
(§3) Protocols for treatment of HepG2 cells and transfection of oligomeric compounds are as described in Example 18. Also as described in Example 18, forty-four hours post-transfection, the cells in the transfected wells were treated with either no insulin (“basal” Experiment 3 (below), for identification of insulin-mimetic compounds) or with 1 nM insulin (“insulin treated” Experiment 4 (below), for identification of insulin sensitizers) for four hours. At the same time, in both plates, cells in some of the un-transfected control wells are treated with 100 nM insulin to determine maximal insulin response. At the end of the insulin or no-insulin treatment (forty-eight hours post-transfection), total RNA is isolated from both the basal and insulin treated (1 nM) 96-well plates, and the amount of total RNA from each sample is determined using a Ribogreen assay (Molecular Probes, Eugene, Oreg.).

[8] = tested on: HeLa cells; assay: Cell cycle assay in HeLa cells; assay type: cell-based, human; settings: HeLa cells, 150 nM oligomeric compound
[9] = tested on: follistatin; assay: Follistatin mRNA expression in HepG2 cells; assay type: cell-based, human; settings: Experiment 2, insulin treated: HepG2 cells transfected with oligomeric compound, 1 nM insulin for four hours; UTC + 1 nM insulin = 100
Description: as §1, §2, §3

[10] = tested on: IGFBP-1; assay: IGFBP-1 mRNA expression in HepG2 cells; assay type: cell-based, human; settings: Experiment 2, insulin treated: HepG2 cells transfected with oligomeric compound, 1 nM insulin for four hours; UTC + 1 nM insulin = 100
Description: as §1, §2, §3

[11] = tested on: T47D cells; assay: Caspase-3 activity assay (apoptosis) in T47D cells; settings: T47D cells, 48 hours
[12] = tested on: BJ, B16-F10, T47D, T47Dp53 and HeLa cells; assay: Cell cycle assay (propidium iodide flow cytometry), cell line panel; assay type: cell-based; settings: 150 nM oligomeric compound, 4.5 μg/ml LIPOFECTIN, after 72 hours, propidium iodide flow cytometry
[13] = 24 hours, relative to untreated control (UTC = 100)
[14] = 48 hours after treatment, relative to untreated control (UTC=100)

**Q.** Which results are given for “327953 (antisense eA*eG*eA*eA*eT*eT*eG*e[5mC]*eG*eT*eT*eT*eG*eG*eA*e[5mC]*eA*eA*eT*e[5mC]*eA) [compound 327953]”?
**A.** GLUT4 mRNA [1]: 112 percentage of untreated control (UTC); % Activity Relative to UTC (tube formation) ([2]; Table 59): 53.3%; PPAR gamma mRNA [3]: 90 percentage of untreated control (UTC); TG (triglyceride accumulation) [4]: 94 percentage of untreated control (UTC); AP2 mRNA [5]: 92 percentage of untreated control (UTC); HSL mRNA [6]: 94 percentage of untreated control (UTC)

**Q.** How did the “% Activity Relative to UTC (tube formation)” value (shortened to “% Activity Relative to UTC”) ([2]; Table 59) turn out when “327948 (antisense eG*e[5mC]*eT*eG*eA*eG*eT*eG*eT*eA*eG*eG*eA*eT*eG*eT*eT*eT*eA*e[5mC]*eA) [compound 327948]” was run?
**A.** 33.3%

**Q.** For “327915 (antisense eA*e[5mC]*eA*eT*eG*eG*eT*eT*eA*eG*eA*eT*e[5mC]*eA*eA*eG*e[5mC]*eA*e[5mC]*eA*eA) [compound 327915]”, which “% Activity Relative to UTC” value ([2]; Table 57) is on record?
**A.** 69.0%

**Q.** Which results are given for “342672 (antisense eA*eT*eA*e[5mC]*e[5mC]*eG*e[5mC]*eG*eA*eT*e[5mC]*eA*eG*eT*eG*e[5mC]*eA*eT*e[5mC]*eT*eT*eT) [compound 342672]”?
**A.** % Activity Relative to UTC (tube formation) ([2]; Table 56): 46.4%; % Activity Relative to UTC (tube formation) ([2]; Table 57): 58.6%; % Activity Relative to UTC (tube formation) ([2]; Table 58): 55.6%; % Activity Relative to UTC (tube formation) ([2]; Table 59): 60.0%

**Q.** What does the source list for “328397 (antisense eT*eT*eG*eA*eT*d[5mC]*d[5mC]*dA*dT*dA*dT*dG*d[5mC]*dA*dA*e[5mC]*eA*eA*eG*eG) [compound 328397]”?
**A.** PEPCKc mRNA expression [7]: 76; % cells aneuploid [8, 13]: 91%; % cells in cell cycle phase G1 [8, 13]: 93%; % cells in cell cycle phase G2/M [8, 13]: 142%; % cells in cell cycle phase S [8, 13]: 86%; % cells in cell cycle phase subG1 [8, 13]: 134%; % cells in cell cycle phase: G1 [8, 14]: 97%; % cells in cell cycle phase: G2/M [8, 14]: 109%; % cells in cell cycle phase: S [8, 14]: 101%; % cells in cell cycle phase: aneuploid [8, 14]: 96%; % cells in cell cycle phase: subG1 [8, 14]: 74%; Follistatin mRNA expression [9]: 75; IGFBP1 mRNA expression [10]: 57; Fold Increase over UTC (caspase activity) ([11]; 200 nM, relative to untreated control): 1.2

**Q.** “327884 (antisense eG*e[5mC]*eA*eA*eA*eA*eA*eT*eG*eT*eG*e[5mC]*eT*eA*eG*eT*eG*e[5mC]*e[5mC]*eA*eA*eA) [compound 327884]” was tested. Which “% Activity Relative to UTC” value ([2]; Table 56) did it give?
**A.** 78.6%

**Q.** For “327882 (antisense eT*e[5mC]*eA*e[5mC]*eT*eT*eT*eT*eG*eT*eG*eA*e[5mC]*eT*eA*eT*eG*e[5mC]*eA*eA) [compound 327882]”, which “% Activity Relative to UTC” value ([2]; Table 56) is on record?
**A.** 107.1%

**Q.** Which “PEPCKc mRNA expression” value [7] does the source give for “328423 (antisense e[5mC]*e[5mC]*eA*e[5mC]*eA*dT*dA*dT*dA*d[5mC]*dA*dT*dA*dT*dA*eT*eA*e[5mC]*eG*e[5mC]) [compound 328423]” here?
**A.** 77

**Q.** And the “Follistatin mRNA expression” value [9]?
**A.** 114

**Q.** What about the “IGFBP1 mRNA expression” value [10] of the same substance?
**A.** 69

**Q.** What about the “G1 (percentage of cells in phase of the cell cycle)” value [12] of the same substance?
**A.** 52.9%

**Q.** What about the “G2/M (percentage of cells in phase of the cell cycle)” value [12] of the same substance?
**A.** 14.8%

**Q.** What about the “S (percentage of cells in phase of the cell cycle)” value [12] of the same substance?
**A.** 32.4%

**Q.** And the “SubG1 (percentage of cells in phase of the cell cycle)” value [12]?
**A.** 4.9%

**Q.** And the “aneuploid (percentage of cells)” value [12]?
**A.** 15.3%

**Q.** And the “Fold Increase over UTC (caspase-3 activity, apoptosis)” value ([11]; 200 nM oligomeric compound, experiment of Table 10)?
**A.** 0.6 fold

**Q.** How did the tube formation ([2]; 75 nM) turn out when “AAAGTGTCAGATACGGTGTGG (anti-miR; chemistry not fully specified) [ISIS 327944]” was run?
**A.** suppressed tube formation

Source: patent US8178506B2, “Oligomeric compounds and compositions for use in modulation of small non-coding RNAs” (Regulus Therapeutics Inc., priority 2003, dated 2012)
